According to patent publication US20050032111A1, “Cadherin-11 as an indicator of viable pregnancy” (priority 1997, published 2005):
Values joined by “and” are separate entries in the source; they are usually repeats but may differ in a detail not shown here. Identical values can stand only once. “Also recorded” adds a separate entry of the source. Counter-ions that a name gives are not always drawn.

What was measured:
[1] = system: women presenting with primary habitual abortion and diagnosed with luteal phase deficiency; experiment: Pregnancy outcome upon treatment; format: in vivo, human; conditions: one line per patient 1-8
Text: (§1) The presence of cad-11 was examined in endometrial biopsies obtained from women presenting with primary (no prior live birth) habitual abortion in association with luteal phase deficiency (LPD). This group of women, who account for approximately 20% of the women attending the Recurrent Pregnancy Loss Clinic, B.C. Women's Hospital and Health Centre, University of British Columbia, Vancouver, Canada, are routinely treated with progesterone or clomiphene citrate (a nonsteroidal synthetic compound). Biopsy specimens were obtained from these women before and after treatment. Cad-11 expression/production was correlated with pregnancy outcome upon treatment. Present treatment of LPD consists of either vaginal progesterone suppositories or clomiphene citrate, with the dosage being adjusted until a repeat endometrial biopsy is considered to be “in phase” by morphological assessment.
However, different intensities of cad-11 immunostaining in the epithelial and stromal component of the endometrium observed in this cohort of women (HSCORES=0-4: Tables 1A and 1B). […] Conversely, a negative HSCORE (0-1) following treatment correlated with a subsequent pregnancy loss (spontaneous abortion).

[2] = system: cad-11 mRNA; experiment: Northern blot analysis of cad-11 mRNA in cultured endometrial stromal cells; format: cell-based, human; conditions: for cad-11 mRNA levels: Example 4B, 24 h culture, P4 0.1-1 μM, E2 30 nm; for stromal cad-11 mRNA levels over time: Example 4C, P4 1 μM, E2 30 nM, DHT 0.1 μM, 0-96 h, P4 effect continued to increase until 96 h
Method: (§2) Endometrial stroma cells were isolated from secretory endometrium as described above. The stroma cells were grown to confluence, washed with PBS, and cultured in DMEM containing charcoal stripped FCS for a further 24 h. The culture medium was removed, and after the cells had been washed twice with PBS, replaced with fresh DMEM containing charcoal stripped FCS. The cells were harvested for either Northern (see Example 5) or Western blot analysis (see Example 6) after 24 h of culture in the presence or absence of steroids in the culture medium P4 (0.1-1 μM), E2 (30 nm), or vehicle (0.1% ethanol).
(§3) Endometrial stromal cells were separated from the glandular epithelium by enzymatic digestion and mechanical dissociation as described above. The endometrial stromal cells were washed once in phenol red-free Dulbecco'e Modified Eagle's medium (DMEM) containing 10% charcoal-stripped fetal bovine serum (FBS) before being resuspended and plated in DMEM containing 25 mM glucose, […] L-glutamine, antibiotics (100 U/ml penicillin, 100 μg/ml streptomycin and 2.5 μg/ml fungizone), and supplemented with 30% charcoal-stripped FBS. The culture medium was replaced 30 min after plating in order to reduce epithelial cell contamination. The purity of the cell cultures was determined by immunocytochemical staining for vimentin, cytokeratin, muscle actin, and factor VIII.
(§4) The stromal cells (passage 2) were grown to confluence, washed with PBS, and cultured in phenol, red-free DMEM supplemented with 10% charcoal-stripped FBS is and containing either progesterone (P4 1 μM), 17β-estradiol (E2, 30 nM), the non-aromatisable androgen dihydrotestosterone (DHT, 0.1 μM) or vehicle (0.1% ethanol). The cells were cultured in the presence or absence of the steroids for 0, 6, 12, 24, 48, 72 or 96 h before being harvested for Northern or Western blot analysis as described in Examples 5 and 6 using the probe described in Example 4A.
To standardise the amounts of total RNA, the blots were also probed with a radiolabelled synthetic oligonucleotide specific for 18S rRNA. Radioautograms were scanned using an LKB laser densitometer. The absorbance values obtained for the cad-11 transcripts were normalised relative to the 18S rDNA absorbance value. Statistical differences between time points and treatments were assessed by the analysis of variance (ANOVA). Differences were considered to be significant for p <0.05.
(§5) To determine whether a combination of steroids was required for maximal cad-11 expression in endometrial stromal cells, the cells (prepared as described above) were cultured in the presence of P4 (1 μM) plus E2 (30 nM), or P4 (1 μM) plus DHT (0.1 μM) for 0, 6, 12, 24, 48, 72 or 96 h before being harvested for Northern or Western blot analysis as described above.
(§6) To determine whether the ability of E2 to potentiate the effects of P4 on stromal cad-11 expression was dose-dependent, the cells were cultured in the presence of vehicle (0.1% ethanol), E2 (30 nM), P4 (1 μM) or P4 (1 μM) plus varying doses of E2 ([…]) for 96 h. 30 nM is approximately equivalent to physiological levels. The cells were then harvested for Northern and Western blot analysis using the procedures described above.
RNA Extraction using an RNAID™ kit (BIO 101, Inc.): • 1. 500 μl cell solution+500 μl of 2M sodium acetate (pH 4.0). • 2. Vortex. • 3. Add 525 μl of chloroform/isoamyl alcohol. • 4. Vortex. • 5. Incubate on ice for 15 minutes. • 6. Spin at 4° C./10,000×g for 20 minutes. • 7. Transfer top phase (RNA rich portion) to a new vial, taking care not to touch the interface and bottom organic solvent part. • 8. Add ½ volume of chloroform/isoamyl alcohol. • 9. Vortex. • 10. Spin 2 min at 4° C./10,000×g. • 11. Transfer top phase to a new tube. • 12. Add 20 μl of RNA Matrix. • 13. Vortex 30 sec. • […].

[3] = system: cad-11 protein; experiment: Western blot analysis of cad-11 protein in cultured endometrial stromal cells; format: cell-based, human; conditions: for cad-11 protein expression levels over time: Example 4C, P4 1 μM, E2 30 nM, DHT 0.1 μM, 0-96 h, P4 effect continued to increase until 86 h [sic]
Method: as §2, §3, §4, §5, §6
Cell cultures were rinsed three times with PBS and drained. The cells were incubated in 100 μl of cell lysis buffer (Tris HCL, pH 7.5 containing 0.5 NP-40, 0.5 mM CaCl2, and 1.0 mM PMSF) at 4° C. for 30 min on a rocking platform. Cell lysates were collected by scraping plate with a plastic spatula. The cell lysates were centrifuged at 10,000 xg for 20 min, and the supernatant was used in the Western Blot analyses or stored at −70° C. Aliquots from the samples were subjected to SDS polyacrylamide gel electrophoresis under reducing conditions. The stacking gels contained 5% acrylamide, and the separating gels were composed of 7.5% acrylamide. The proteins were electrophoretically transferred from the gels onto nitrocellulose membrane. The nitrocellulose blots were probed with the mouse monoclonal antibody (C11-113H) directed against human cad-11 (from ICOS Corporation, Bothell, Wash.) produced as described in Example 10 below. The Amersham ECL™ system was used to detect antibody bound to antigen.

[4] = system: cad-11 in the endometrium; experiment: Cad-11 immunostaining (HSCORE) of endometrial biopsies after treatment; format: in vivo, human; conditions: for AFTER TREATMENT (HSCORE), cad-11 expression in the endometrium: women with primary habitual abortion and LPD, one line per patient 1-8; for effect of treatment on endometrial cad-11 expression: women with LPD-associated habitual abortion, degree of response variable
Method: The intensity of cad-11 immunostaining in the endometrial biopsies may be determined by the semiquantitative HSCORE technique which is routinely used in oncology for cancer cell counts. The HSCORE is a continuous value (from 0-4, respectively), in which a discriminatory level that designates positives and negatives for the test is determined. Typically, a consensus is made between counts carried out by two observers in a blinded fashion employing a double-headed microscope at low and high magnification.
as §1
LPD was diagnosed by traditional methods prior to determining cad-11 by immunostaining. To increase the likelihood of including only those individuals with authentic LPD, the criteria for inclusion in this study was two consecutive biopsies with a 3 days of maturation delay based on the first day of the next menses as determined by morphological assessment.
In 16 such patients, cad-11 immunostaining was examined in biopsies obtained before and after treatment with either progesterone (results shown in Table 1A) or clomiphene citrate (results shown in Table 1B). All 16 had return of normal in-phase morphology on subsequent biopsy. The endometrial biopsy specimens were then re-evaluated for cad-11 using immunohistochemical staining. Comparison of staining pattern and intensity was performed using a monoclonal antibody directed against human cadherin-11 and standard immunohistochemical techniques according to the protocol set out in Example 3. The intensity of cad-11 immunostaining in the endometrial biopsies was determined by the semiquantitative HSCORE technique as described above.
For Detection of Cad-11 in Endometrial Biopsy Specimens • Prepare diluent fresh 1% bovine serum albumin (BSA; Sigma Chem Co.)/1% Automation Buffer (AB; ESBE Lab.) (wt/vol).
For paraffin embedded endometrial biopsy specimen sections (5 μm): • 1. Wash tissue specimen thoroughly in phosphate-buffered saline (PBS). • 2. […]

[5] = Treatment: Progesterone Suppositories
[6] = Example 4F, cultured endometrial stromal cells
[7] = Example 4E, P4 1 μM plus E2 0.5-100 nM, 96 h
[8] = Example 4E, with P4 1 μM, 96 h, versus 30 nM E2

SMILES | cad-11 mRNA levels [2] | stromal cad-11 mRNA levels over time [2] | regulation of cad-11 mRNA expression by steroid alone [2, 6] | cad-11 protein expression levels over time [3] | regulation of cad-11 protein expression by steroid alone [3, 6] | effect of treatment on endometrial cad-11 expression [4] | other results
CC(=O)[C@H]1CC[C@H]2[C@@H]3CCC4=CC(=O)CC[C@]4(C)[C@H]3CC[C@]12C [progesterone] | increased cad-11 mRNA levels in a dose-dependent manner | significant increase in the stromal cad-11 mRNA levels after 24 h | increased cad-11 expression | increase in cad-11 expression after 24 h | increased cad-11 expression | capable of increasing endometrial cad-11 expression | PREGNANCY OUTCOME [1, 5]: successful; also recorded: spontaneous; stromal cad-11 protein ([3]; Example 4B, 24 h culture, P4 0.1-1 μM): induced an increase in stromal cad-11 protein; AFTER TREATMENT (HSCORE), cad-11 expression in the endometrium [4, 5]: 3 (positive) HSCORE (2×) and 4 (positive) HSCORE (2×) and 2 (equivocal) HSCORE and 1 (negative) HSCORE (2×) and 0 (negative) HSCORE
CC(=O)O[C@]1(C(C)=O)CC[C@H]2[C@@H]3C[C@H](C)C4=CC(=O)CC[C@]4(C)[C@H]3CC[C@@]21C [medroxyprogesterone acetate] | – | – | increased cad-11 expression | – | increased cad-11 expression | – | –
CC(=O)[C@H]1CC[C@H]2[C@@H]3CC=C4C[C@@H](O)CC[C@]4(C)[C@H]3CC[C@]12C [Pregnenolone] | – | – | increased cad-11 expression | – | increased cad-11 expression | – | –
C[C@]12CCC(=O)C[C@@H]1CC[C@@H]1[C@@H]2CC[C@]2(C)[C@@H](O)CC[C@@H]12 [DHT, dihydrotestosterone] | – | did not significantly increase cad-11 mRNA levels | – | No significant increase in cad-11 expression levels | – | – | –
CCN(CC)CCOc1ccc(C(=C(Cl)c2ccccc2)c2ccccc2)cc1 [clomiphene citrate] | – | – | – | – | – | capable of increasing endometrial cad-11 expression | PREGNANCY OUTCOME ([1]; Treatment: Clomiphene Citrate): successful; also recorded: spontaneous; AFTER TREATMENT (HSCORE), cad-11 expression in the endometrium ([4]; Treatment: Clomiphene Citrate): 4 (positive) HSCORE (2×) and 2 (equivocal) HSCORE and 1 (negative) HSCORE (2×) and 0 (negative) HSCORE and 3 (positive) HSCORE (2×)
C[C@]12CC[C@@H]3c4ccc(O)cc4CC[C@H]3[C@@H]1CC[C@@H]2O [E2, 17β-estradiol] | little effect on cad-11 mRNA levels | did not significantly increase cad-11 mRNA levels | – | No significant increase in cad-11 expression levels | – | – | potentiation of P4-mediated increase in stromal cad-11 mRNA by increasing doses of E2 [2, 7]: progressively enhanced the effects of P4; E2 concentration at which maximum cad-11 mRNA expression level was observed ([2]; Example 4E, with P4 1 μM, 96 h): 30 nM; enhancement of stromal cad-11 mRNA when E2 was increased to 100 nM [2, 8]: no further enhancement; potentiation of the progestin-mediated increase in cad-11 mRNA [2, 6]: potentiate this effect; potentiation of P4-mediated increase in stromal cad-11 protein by increasing doses of E2 [3, 7]: progressively enhanced the effects of P4; E2 concentration at which maximum cad-11 protein expression level was observed ([3]; Example 4E, with P4 1 μM, 96 h): 30 nM; enhancement of stromal cad-11 protein when E2 was increased to 100 nM [3, 8]: no further enhancement; potentiation of the progestin-mediated increase in cad-11 protein [3, 6]: potentiate this effect
